Results published in US20240327354A1, “GRAM-NEGATIVE BACTERIA EFFLUX PUMP INHIBITORS” (INSTITUT NATIONAL DE LA SANTÉ ET DE LA RECHERCHE MÉDICALE, priority 2021, published 2024).
Structures can show the parent of a compound that is named as a salt.

Legend:
[1] = tested on: A. baumannii LMG 1025 (ATCC 17978); assay: Assay 2: growth inhibition of A. baumannii by sub-inhibitory chloramphenicol in combination with examples (resazurin reduction); assay type: cell-based, Acinetobacter baumannii; conditions: read-out: EC90 on A. baumannii with 10 μg/mL of chloramphenicol, 10 μg/mL chloramphenicol, 5 h or 24 h, 37° C.
Description: (§1) Escherichia coli BW25113 (CGSC 7636) and its derivatives E. coli ΔtolC (JW5503-1, ΔtolC732::kan, CGSC 11430), E. coli ΔacrA (JW0452-3, ΔacrA748::kan, CGSC 11843) and E. coli ΔacrB (JW0451-2, ΔacrB747::kan, CGSC 8609) were obtained from E. coli Genetic Stock Center (CGSC, New Haven, Connecticut) and originated from the Keio Collection (Baba T et al, Mol Sys Biol, 2006). Klebsiella pneumoniae (LMG 2095/ATCC 13883) and K. pneumoniae (ATCC43816), Pseudomonas aeruginosa (PAO1), Acinetobacter baumannii (LMG 1025, ATCC 17978), were obtained from ATCC or BCCM/LMG Bacteria Collection. All bacteria were grown and tested in cation-adjusted Mueller-Hinton broth (CAMHB; BD Difco) at 37° C. For conservation, log phase bacteria were frozen (−80° C.) in CAMHB supplemented with 15% glycerol.
Measurement of Growth Inhibition of A. baumannii Strains by Sub Inhibitory Concentrations of Chloramphenicol in Combination with Examples 1-137
(§2) For the evaluation of the dose dependent activity of examples 1-137, their ability to boost the antibacterial activity of sub-inhibitory concentrations chloramphenicol was determined. Briefly, A. baumannii LMG 1025 (ATCC 17978) were diluted from frozen or growing stocks to an OD600 of 0.001 in CAMHB. The bacterial suspension was then used as such (no-antibiotic control to evaluate EPI activity), or spiked with chloramphenicol at a final concentration of 10 μg/mL. Bacteria were then added to microplates carrying serial dilutions of the compounds examples 1-137, and incubated for (5 h or 24 h, 37° C.). Bacterial viability was evaluated using the resazurin reduction assay, and measured by fluorescence (POLARstar Omega, BMG Labtech: Ex: 530 nm Em: 590 nm). […] were defined as the compound concentration that prevented 90% of resazurin turnover compared to the non-treated bacteria.

E. coli BW25113 = assay: Assay 1: growth inhibition of E. coli by sub-inhibitory pyridomycin in combination with examples (resazurin reduction); assay type: cell-based, Escherichia coli; conditions: read-out: EC50 on E. coli with 8 μg/mL of pyridomycin, 8 μg/mL pyridomycin, 5 h, 37° C.
Description: as §1
Briefly, E. coli BW25113 were diluted from frozen or growing stocks to an OD600 of 0.0004-0.001 in CAMHB. […] E. coli BW25113 viability was evaluated using the resazurin reduction assay, and measured by fluorescence (POLARstar Omega, BMG Labtech: Ex: 530 nm Em: 590 nm). EC50 were defined as the compound concentration that prevented 50% of resazurin turnover compared to the non-treated bacteria.

[2] = tested on: A. baumannii LMG 1025 (ATCC 17978); assay: Assay 3: growth inhibition of A. baumannii by sub-inhibitory novobiocin in combination with examples (resazurin reduction); assay type: cell-based, Acinetobacter baumannii; conditions: 5 μg/mL novobiocin, 5 h or 24 h, 37° C., read-out: EC90 on A. baumannii with 5 μg/mL of novobiocin
Description: as §1
Measurement of growth Inhibition of A. baumannii strains by sub Inhibitory concentrations of novobiocin In combination with examples 1-137
as §2, with “concentrations novobiocin” for “concentrations chloramphenicol”, “such (no—antibiotic” for “such (no-antibiotic”, “with novobiocin” for “with chloramphenicol”, “of 5” for “of 10”

| Compound | EC90 [1] | EC50 (E. coli BW25113) | EC90 [2] |
| --- | --- | --- | --- |
| Cc1ccc(COC(=O)c2cnc(N3CCNCC3)c(Cl)c2)cc1 [Example 24, p-tolylmethyl 5-chloro-6-piperazin-1-yl-pyridine-3-carboxylate;hydrochloride] | 100 to 500 µM | 5 to 100 µM | – |
| O=C(OCc1ccc(Cl)cc1)c1cnc(N2CCNCC2)c(Cl)c1 [Example 25, (4-chlorophenyl)methyl 5-chloro-6-piperazin-1-yl-pyridine-3-carboxylate;hydrochloride] | 100 to 500 µM | 5 to 100 µM | – |
| O=C(OCCc1ccc(Cl)cc1)c1cnc(N2CCNCC2)c(Cl)c1 [Example 26, 2-(4-chlorophenyl)ethyl 5-chloro-6-piperazin-1-yl-pyridine-3-carboxylate;hydrochloride] | 100 to 500 µM | 100 to 500 µM | – |
| O=C(OCCCc1ccc(Cl)cc1)c1cnc(N2CCNCC2)c(Cl)c1 [Example 27, 3-(4-chlorophenyl)propyl 5-chloro-6-piperazin-1-yl-pyridine-3-carboxylate;hydrochloride] | 100 to 500 µM | 100 to 500 µM | – |
| O=C(OCCc1ccccc1)c1cnc(N2CCNCC2)c(Cl)c1 [Example 30, 2-phenylethyl 5-chloro-6-piperazin-1-yl-pyridine-3-carboxylate;hydrochloride] | 100 to 500 µM | 5 to 100 µM | – |
| COc1ccc(COC(=O)c2cnc(N3CCNCC3)c(Cl)c2)cc1 [Example 31, (4-methoxyphenyl)methyl 5-chloro-6-piperazin-1-yl-pyridine-3-carboxylate;hydrochloride] | 100 to 500 µM | 5 to 100 µM | – |
| O=C(NCc1ccc(Cl)cc1)c1cnc(N2CCNCC2)c(Cl)c1 [Example 33, 5-chloro-N-[(4-chlorophenyl)methyl]-6-piperazin-1-yl-pyridine-3-carboxamide;hydrochloride] | 100 to 500 µM | 5 to 100 µM | – |
| Clc1cc2ccccc2nc1N1CCNCC1 [Example 37, 3-chloro-2-piperazin-1-yl-quinoline; hydrochloride] | 5 to 100 µM | < 5 µM | – |
| Cc1cc2ccccc2nc1N1CCNCC1 [Example 38, 3-methyl-2-piperazin-1-yl-quinoline; hydrochloride] | 100 to 500 µM | 5 to 100 µM | – |
| N#Cc1cc2ccccc2nc1N1CCNCC1 [Example 39, 2-piperazin-1-ylquinoline-3-carbonitrile; hydrochloride] | 100 to 500 µM | 5 to 100 µM | – |
| Clc1ccc2nc(Cl)c(N3CCNCC3)cc2c1 [Example 41, 2,6-dichloro-3-piperazin-1-yl-quinoline;hydrochloride] | 100 to 500 µM | 5 to 100 µM | – |
| Cc1ccc2nc(Cl)c(N3CCNCC3)cc2c1 [Example 42, 2-chloro-6-methyl-3-piperazin-1-yl-quinoline;hydrochloride] | 100 to 500 µM | 5 to 100 µM | – |
| Brc1cc2ccccc2nc1N1CCNCC1 [Example 43, 3-bromo-2-piperazin-1-yl-quinoline;hydrochloride] | 100 to 500 µM | < 5 µM | – |
| Brc1cnc(N2CCNCC2)c2ccccc12 [Example 44, 4-bromo-1-piperazin-1-yl-isoquinoline;hydrochloride] | 5 to 100 µM | 100 to 500 µM | – |
| Clc1cc2ccccc2nc1N1C2CCC1CNC2 [Example 45, 3-chloro-2-(3,8-diazabicyclo[3.2.1]octan-8-yl)quinoline;hydrochloride] | 100 to 500 µM | 100 to 500 µM | – |
| Clc1nc2ccccc2nc1N1CCNCC1 [Example 46, 2-chloro-3-piperazin-1-yl-quinoxaline;hydrochloride] | 100 to 500 µM | < 5 µM | – |
| Clc1nc2ccccc2nc1N1CC2CCC(C1)N2 [Example 48, 2-chloro-3-(3,8-diazabicyclo[3.2.1]octan-3-yl)quinoxaline;hydrochloride] | 100 to 500 µM | 5 to 100 µM | – |

| Compound | EC90 [1] | EC50 (E. coli BW25113) | EC90 [2] |
| --- | --- | --- | --- |
| C[C@@H]1CN(c2nc3ccccc3nc2Cl)CCN1 [Example 49, hydrochloride] | 100 to 500 µM | 5 to 100 µM | – |
| Ic1cc2ccccc2nc1N1CCNCC1 [Example 52, 3-iodo-2-piperazin-1-yl-quinoline;hydrochloride] | 100 to 500 µM | < 5 µM | – |
| FC(F)(F)c1ccc2nc(N3CCNCC3)c(Br)cc2c1 [Example 53, 3-bromo-2-piperazin-1-yl-6-(trifluoromethyl)quinoline; hydrochloride] | 100 to 500 µM | 5 to 100 µM | – |
| Clc1ccc2nc(N3CCNCC3)c(Br)cc2c1 [Example 54, 3-bromo-6-chloro-2-piperazin-1-yl-quinoline; hydrochloride] | 100 to 500 µM | < 5 µM | – |
| Cc1ccc2nc(N3CCNCC3)c(Br)cc2c1 [Example 55, 3-bromo-6-methyl-2-piperazin-1-yl-quinoline;hydrochloride] | 100 to 500 µM | < 5 µM | – |
| Cc1cccc2cc(Cl)c(N3CCNCC3)nc12 [Example 59, 3-chloro-8-methyl-2-piperazin-1-yl-quinoline;hydrochloride] | 100 to 500 µM | < 5 µM | – |
| COc1nc2ccccc2nc1N1CCNCC1 [Example 82, 2-methoxy-3-piperazin-1-yl-quinoxaline; 2,2,2-trifluoroacetic acid] | 100 to 500 µM | 5 to 100 µM | – |
| Clc1nc2ccccc2nc1N1CC2CC(C1)N2 [Example 83, 2-chloro-3-(3,6-diazabicyclo[3.1.1]heptan-3-yl)quinoxaline; trifluoromethanesulfonic acid] | 100 to 500 µM | 100 to 500 µM | – |
| NCCc1ccccc1C#Cc1cnc(N2CCNCC2)c(Cl)c1 [Example 90, 2-[2-[2-(5-chloro-6-piperazin-1-yl-3-pyridyl)ethynyl]phenyl]ethanamine; 2,2,2-trifluoroacetic acid] | – | < 5 µM | 5 to 100 µM |
| NCCc1cccc(C#Cc2cnc(N3CCNCC3)c(Cl)c2)c1 [Example 91, 2-[3-[2-(5-chloro-6-piperazin-1-yl-3-pyridyl)ethynyl]phenyl]ethanamine; 2,2,2-trifluoroacetic acid] | – | < 5 µM | 5 to 100 µM |
| Cc1c(Cl)ccc2cc(Cl)c(N3CCNCC3)nc12 [Example 98, 3,7-dichloro-8-methyl-2-piperazin-1-yl-quinoline;hydrochloride] | 5 to 100 µM | < 5 µM | – |
| NCCCCNc1ccc2nc(N3CCNCC3)c(Cl)cc2c1 [Example 105, N′-(3-chloro-2-piperazin-1-yl-6-quinolyl)butane-1,4-diamine;dihydrochloride] | – | < 5 µM | 5 to 100 µM |
| Clc1cc2cc(-c3ccccc3)ccc2nc1N1CCNCC1 [Example 106, 3-chloro-6-phenyl-2-piperazin-1-yl-quinoline;hydrochloride] | 5 to 100 µM | 5 to 100 µM | – |
| NCc1ccc(-c2ccc3nc(N4CCNCC4)c(Cl)cc3c2)cc1 [Example 107, [4-(3-chloro-2-piperazin-1-yl-6-quinolyl)phenyl]methanamine;dihydrochloride] | – | < 5 µM | 5 to 100 µM |
| CN(C)Cc1cccc(-c2ccc3nc(N4CCNCC4)c(Cl)cc3c2)c1 [Example 110, 1-[3-(3-chloro-2-piperazin-1-yl-6-quinolyl)phenyl]-N,N-dimethyl-methanamine;dihydrochloride] | – | < 5 µM | 5 to 100 µM |
| Clc1cc2cc(-c3cccc4c3CNC4)ccc2nc1N1CCNCC1 [Example 134, 3-chloro-6-isoindolin-4-yl-2-piperazin-1-yl-quinoline;dihydrochloride] | 5 to 100 µM | < 5 µM | – |
